Measurements: patent publication US20190060308A1, “PHARMACEUTICAL COMPOSITION COMPRISING AN OMEGA-3 FATTY ACID AND A HYDROXY-DERIVATIVE OF A STATIN AND METHODS OF USING SAME” (Amarin Pharmaceuticals Ireland Limited, priority 2012, published 2019)

Tests used:
[1] = test system: human umbilical vein epithelial cells (HUVECs); assay: NO and ONOO^− release by HUVECs following stimulation with oxidized LDL (Example 2); type: cell-based; conditions: calcium ionophore 1.0 μM, oxLDL 10 mg/dL, EPA 10.0 μM, rosuvastatin or ATM 1.0 μM
Description: An experiment was conducted to test the effects of EPA with rosuvastatin or atorvastatin active o-hydroxyl metabolite (“ortho-hydroxy atorvastatin” or “ATM”) on nitric oxide (NO) and peroxynitrite (ONOO^−) release by human umbilical vein epithelial cells (“HUVECs”) following stimulation with oxidized LDL. Nitric oxide bioavailability, peroxynitrite bioavailability, and the ratio of bioavailable nitric oxide to bioavailable peroxynitrite (NO/ONOO^−) serve as useful indicators of endothelial cell function. In particular, the NO/ONOO^− ratio can serve as an indicator of normal epithelial cell function.
In this experiment, HUVECs were equipped with prophyrinic nanosensors and then treated with calcium ionophore (1.0 μM). The HUVECs were then exposed to a solution of oxidized LDL (10 mg/dL).
HUVECs exposed to oxLDL were then treated with EPA alone (10.0 μM), a combination of EPA (10.0 μM) and rosuvastatin (1.0 μM), or a combination of EPA (10.0 μM) and ATM (1.0 μM).

[2] = test system: human umbilical vein endothelial cells (HUVECs); assay: NO and ONOO^− release from HUVECs exposed to oxLDL, tandem electrochemical nanosensors (Example 3); type: cell-based; conditions: for increase in NO/ONOO^− ratio: versus treatment with oxLDL and vehicle only, statin 1.0 μM
Description: An experiment was conducted to test the effects of EPA with rosuvastatin, atorvastatin or o-hydroxyatorvastatin (an active hydroxyl metabolite, “ATM”) on nitric oxide (NO) and peroxynitrite (ONOO^−) release by human umbilical vein epithelial cells (“HUVECs”) following stimulation with oxidized LDL. Nitric oxide bioavailability, peroxynitrite bioavailability, and the ratio of bioavailable nitric oxide to bioavailable peroxynitrite (NO/ONOO^−) serve as useful indicators of endothelial cell function. In particular, the NO/ONOO^− ratio can serve as an indicator of normal epithelial cell function.
Human umbilical vein endothelial cells (HUVECs) were isolated into primary cultures from female donors by Clonetics (San Diego, Calif.) and purchased as proliferating cells. All cell culture donors were healthy, with no pregnancy or prenatal complications. […] The confluent cells (4 to 5×10^5 cells/35 mm dish) were placed with minimum essential medium containing 3 mM L-arginine and 0.1 mM BH4 [(6R)-5,6,7,8-tetrahydrobiopterin]. Before experimental use, the cells (from second or third passage) were rinsed twice with Tyrode-HEPES buffer with 1.8 mM CaCl2).
The effects of EPA treatment were tested in the absence and presence of statins in HUVECs following exposure to oxidized LDL (oxLDL). The oxLDL causes eNOS uncoupling and endothelial dysfunction to reproduced disease-like conditions. Venous blood from healthy normolipidemic volunteers was collected into Na-EDTA (1 mg/mL blood) vacuum tubes after a 12-hour fast. Plasma was immediately separated by centrifugation at 3,000 g for 10 minutes at 4° C. […] The purified LDL was dialyzed for 96 hours against PBS containing 0.3 mM EDTA at 4° C., then stored at 4° C.
A sample of LDL was dialyzed against Tris/NaCl Buffer (50 mM Tris in 0.15 M NaCl, pH 8.0) to remove the EDTA. Tris-NaCl buffer was added to the dialyzed n-LDL to adjust the protein concentration to 30 mg/mL. A 1-mL aliquot of 20 μM CuSO4 was added to 1 mL of dialyzed normal LDL. Oxidation at 37° C. was followed spectrophotometrically (234 nm) over a period of 24 hours until oxidation was complete. The oxLDL was then dialyzed at 4° C. with 4 L of Tris buffer, filtered with a 0.22 μm filter, and stored under nitrogen at 4° C.
Oxidation was monitored by the use of measurements of TBARS. Briefly, LDL was incubated with thiobarbituric acid (0.5 wt/vol, in H2SO4, 50 mM) for 30 minutes at 100° C. […] TBARS concentration was determined as malondialdehyde (MDA) equivalents with the use of an MDA standard curve.
Concurrent measurements of NO and ONOO^− were performed with tandem electrochemical nanosensors combined into one working unit with a total diameter of 200-400 nm. Their design was based on previously developed and chemically modified carbon-fiber technology. Each of the nanosensors was made by depositing a sensing material on the tip of a carbon fiber (length 4 to 5 μm, diameter 100-200 nm). The fibers were sealed with nonconductive epoxy and electrically connected to copper wires with conductive silver epoxy. Conductive films of polymeric Ni(II) tetrakis (3-methoxy-4-hydroxyphenyl) porphyrin and Mn(III) [2.2] paracyclophanylporphyrin were used for the NO and ONOO^− sensors, respectively.
The amperometric method (with a response time of 0.1 ms) provides a quantitative signal (current) that is directly proportional to changes (from basal levels) in NO or ONOO^− concentration. Amperometric measurements were performed with a Gamry III double-channel potentiostat. Basal NO or ONOO^− levels were measured by differential pulse voltammetry in separate experiments.
All measurements of NO and ONOO^− were performed on intact endothelial cells. The NO/ONOO^− nanosensor module was positioned 5±2 μm from the surface of each individual endothelial cell using a computer-controlled M3301 micromanipulator (x-y-z resolution of 0.2 μm) and microscope (both from World Precision Instruments, Berlin, Germany) fitted with a CD camera.

[3] = HUVECs exposed to oxLDL, EPA 10 μM
[4] = compared to treatment with oxLDL and vehicle only, EPA 10 μM

SMILES | NO [1] [nM] | NO/ONOO^− [1] | ONOO^− [1] [nM] | increase in NO/ONOO^− ratio ([2]; EPA 10 μM) [%] | NO release [2, 3] [nM] | ONOO^− release [2, 3] [nM] | increase in NO release [2, 4] [%] | reduction of ONOO^− release [2, 4] [%] | increase in NO/ONOO^− ratio (in words) ([2]; HUVECs exposed to oxLDL, VAS2870 alone or with EPA and statin)
CC(C)c1nc(N(C)S(C)(=O)=O)nc(-c2ccc(F)cc2)c1/C=C/[C@@H](O)C[C@@H](O)CC(=O)O [rosuvastatin] | 191 ± 33 | 0.8 | 252 ± 39 | 21 | – | – | – | – | –
CC/C=C\C/C=C\C/C=C\C/C=C\C/C=C\CCCC(=O)O [EPA, eicosapentaenoic acid] | 208 ± 32 | 1.0 | 203 ± 21 | 41 | 208 ± 32 | 203 ± 21 | 18 | 16 | –
CC(C)c1c(C(=O)Nc2ccccc2O)c(-c2ccccc2)c(-c2ccc(F)cc2)n1CC[C@@H](O)C[C@@H](O)CC(=O)O [ATM, o-hydroxyatorvastatin] | 199 ± 20 | 0.8 | 236 ± 35 | 33 | – | – | – | – | –
c1ccc(Cn2nnc3c(Sc4nc5ccccc5o4)ncnc32)cc1 [VAS2870] | – | – | – | – | – | – | – | – | two-fold
CC(C)c1c(C(=O)Nc2ccccc2)c(-c2ccccc2)c(-c2ccc(F)cc2)n1CC[C@@H](O)C[C@@H](O)CC(=O)O [atorvastatin] | – | – | – | 84 | – | – | – | – | –
